We go through two molecules from US8853406B2, “Substituted phenylenediamines as inhibitors of the interaction between MDM2 and P53” (Janssen Pharmaceutica NV, priority 2007, dated 2014).

For data set [1], the system named is human U87 gliomoblastoma xenograft tumors. Nature of the data set: In vivo anti tumour effects, U87 glioblastoma xenograft. Further details: species or system NMRI Nude mice. The conditions noted are these: for in vivo antitumoral activity: s.c. U87 xenograft in NMRI Nude mice; for tumor growth of pre-established U87 xenograft: 21 days. As for the experimental part:
FIG. 7 is the Antitumoral effect of compound No. 1 in U87 Glioblastoma Xenograft Tumors in NMRI Nude mice: • On day 0, male NMRI Nude mice were inoculated with a single subcutaneous injection into the inguinal region with human U87 Glioblastoma tumor cells ([…]). On day 8, mice were treated p.o. with vehicle (control group; 10% hydroxypropyl-β-cyclodextrin (□)) or vehicle containing Co No. 1 at either 2.5 mg/kg (▴), 5 mg/kg (▾), 10 mg/kg (♦) or 20 mg/kg (●) for 21 days (QD×21). Subcutaneous tumor volumes and body weights were measured twice weekly, until end of study and results represented as relative tumor volumes (mm^3). Dosing period indicated under x-axis.
The minimal efficacious dose (according to the NCI standard) in this model was 5 mg/kg.
Immuno-deficient (athymic) male NMRI Nude (Nu/Nu) mice (20-25 g were obtained from Janvier, France) were used for theses studies. Initial weight was approximately […]. All animals were maintained under SPF “full barrier” conditions with free access to food and water. Mice were group housed under a 12-h light:dark cycle (lights on at 06:00 h) at a temperature of 19 to 22° C. and 35 to 40% humidity in Techniplast type-3 IVC cages. Mice were fed a standard Laboratory chow. All experiments were carried out in accordance with the European Communities Council Directives (86/609/EEC) and were approved by the local ethical committee. For an established tumor xenograft model (tumor volume ˜200 mm^3), mice were randomized according to tumor volumes, with 10 to 14 mice per treatment group.
The human U87 glioma tumor cell line was derived from a patient. Cells were cultured at 37° C. in a humidified atmosphere (5% CO2, 95% air), in DMEM medium supplemented with 2 mM L-glutamine, 2.0 mM sodium pyruvate, 25 units/ml penicillin/25 μg/ml streptomycin and 10% fetal bovine serum. Cells were maintained as cell monolayer cultures, being passaged twice weekly at 3×10^6 cells per T175 flask using the following procedure. Briefly cells were washed with PBS (without Mg^2+, Ca^2+), before addition of trypsin-EDTA to the culture flasks. After detachment of cells the trypsin-EDTA was inactivated by addition of complete medium. Cell suspension was then transferred to 50 ml Falcon tube and centrifuged for 3 min at 1200 rpm. Medium was aspirated, with the cells being re-suspended in an appropriate volume of complete medium. The cells were counted in a haemocytometer and their viability was assessed by 0.25% trypan blue exclusion. An appropriate volume of cell suspension was then added to either a new T175 culture flask(s) or roller bottle containing fresh medium. For large scale-up growth of U87 tumor cells, an appropriate number of roller bottles were seeded with 0.5 to 1×10^7 cells 1 week prior to inoculation of mice. The medium was changed twice during this period, with the last change being the day prior to cell injection. Cells were collected as described above, with the exception that after centrifugation, the cells were re-suspended in cold (4° C.) serum-free medium. Mice were injected in the inguinal region with 1×10^7 cells total in a 200 μl volume.
Human U87 glioma cells were injected directly into the inguinal region of the male NMRI Nude mice (1×10^7 cells/200 μl/animal) on day 0 (D0). […] Tumor size and body weights were measured twice weekly, with mice monitored daily for clinical signs of toxicity for the duration of the treatment. […]

Another data set deals with Male NMRI mice. Nature of the data set: Ro-4-1284 antagonism in mice (drug induced neurological effects). The conditions noted are these: for activity on observations in Ro-4-1284 antagonism test: 80 mg/kg, oral administration, 3 animals; for drug induced neurological side effects: Ro-4-1284 antagonism in mice. Type of data set: in vivo. As for the experimental part:
The test is a modification of a procedure described by Colpaert et al. (1975).^3 Male NMRI mice (22±3 g) were housed in macrolon observation cages (L×W×H: 11×12×17 cm; n=3 per cage). At the start of the experiments immediately before test compound administration, the initial body temperature of the mice was measured with a precision of 0.1° C. by inserting the thermo-sensitive probe (1.0 mm diameter) of an electric thermometer (Comark) to a constant depth of 3 cm into the esophagus until a stable reading was obtained. The right eye pupil diameter was measured with a graduated microscope and expressed in 1/24 mm units. Fifteen min after test compound administration, the mice were challenged with Ro-4-1284 (10 mg/kg, s.c.). Ro-4-1284 is a reserpine-like vesicular monoamine transport (VMAT-2) inhibitor, which rapidly depletes secretory vesicles.^3,4 Fifteen, 30 and 60 min after challenge, the mice were scored for palpebral opening (0, 1, 2, 3, 4, 5) and locomotor activity (−1, 0, 1, 2, 3). At the 60-min interval, immediately after the scoring of overt behavior, the right eye pupil diameter and the esophageal temperature were measured again. Abnormal phenomena such as intensive sniffing, chewing, rearing, hyperemia, piloerection, salivation, tremors, convulsions and death were noted (the latter phenomena were also noted when occurring before Ro-4-1284 administration). Criteria for drug-induced effects: reversal of ptosis: palpebral opening score >1 at 15, 30 or 60 min (2.7, 0.5 and 0% false positive controls, respectively; n>350); induction of prostration: score −1 for locomotion at 15, 30 or 60 min (never observed in controls); reversal of hypomotility: score >0 for locomotion at 15, 30 and 60 min (2.2, 0.8 and 0% false positive controls, respectively); reversal of miosis: pupil diameter >5 units at 60 min (0.8% false positives); potentiation of hypothermia: temperature decrease (over the 1-h time interval)>9.0° C. (1.4% false positives); reversal of hypothermia: temperature decrease <3.0° C. (1.8% false positives).
According to the standard procedure, R0-4-1284 is injected 15 min following subcutaneous or oral administration and observations start 15 min later. Doses are initially given to 3 animals. When at least 2 out of the 3 animals show activity for at least one of the observations, the compound is considered active.

Consider `Cc1cc(Nc2ccnc3c2CCC3O)ccc1NCCc1c[nH]c2c(C)cccc12` (single isomer, unassigned) [Compound No. 2], for which the “in vivo antitumoral activity” value in data set [1] is “showed in vivo antitumoral activity”. Moreover, in the data set on Male NMRI mice, the “activity on observations in Ro-4-1284 antagonism test” value was “did not show activity on any observation on any animal” and the “drug induced neurological side effects” value is on record as “No”.
As for `Cc1cc(Nc2ccnc3c2CCC3O)ccc1NCCc1c[nH]c2c(C)cccc12` (single isomer, unassigned) [Compound No. 1], the “tumor growth of pre-established U87 xenograft” value in data set [1] (10 mg/kg oral) is “complete tumor growth inhibition and regression”. Also, the “tumor growth of pre-established U87 xenograft” value in data set [1] (20 mg/kg oral) is “complete tumor growth inhibition and regression”. Moreover, in data set [1] (U87 xenograft, oral QD x 21), the “minimal efficacious dose (according to the NCI standard)” value was found to be 5 mg/kg. Besides, the “in vivo antitumoral activity” value in data set [1] (listed as Co No. 1) is “potent inhibition in growth”. For the same molecule, in the data set on Male NMRI mice, the “activity on observations in Ro-4-1284 antagonism test” value was “did not show activity on any observation on any animal” and the “drug induced neurological side effects” value was “No”.
